Results from patent publication US20080287429A1 (Z & Z Medical Holdings, Inc., priority 2007, published 2008).
Where two headings read alike, the source gives them in different places.

Columns and labels:
[1] = system: atherosclerotic plaque in pig artery; experiment: Solubilization of atherosclerotic plaque material in ex vivo samples of pig artery; conditions: 50 mg/mL DCA bath, after 5 hours
Procedure: Early in the treatment, on removal of the sample from the bath a clear, viscous, column of fluid extended from the sample. This column of fluid continued to be apparent when samples were evaluated up to about 4 or 5 hours, after which the fluid column was no longer noted. Without wishing to be held to any one theory of operation, it was concluded that the clear fluid comprised components of the plaque. […] The sample was continuously exposed for a period of 8 days.

[2] = fed to C57BL/6 LDL r-KO knockout mice, relative to mice not provided HDCA; cited from earlier work
[3] = wild type mice, same amount of dietary HDCA; cited from earlier work
[4] = system: sandwich culture rat hepatocyte; conditions: cited from earlier work
[5] = system: sandwich culture rat hepatocytes; conditions: cited from earlier work
[6] = system: sandwich culture human hepatocytes; conditions: cited from earlier work
[7] = in vivo; cited from earlier work
[8] = system: hepatocellular uptake of bile acids; conditions: cited from earlier work
[9] = 40 mg/day rosuvastatin, cited from earlier work
[10] = system: bile acid uptake by hepatocyte receptors; conditions: 1 mmol/kg, cited from earlier work

C[C@H](CCC(=O)O)[C@H]1CC[C@H]2[C@@H]3CC[C@@H]4C[C@H](O)CC[C@]4(C)[C@H]3C[C@H](O)[C@]12C [DCA, deoxycholic acid]
plaque volume decreased (macroscopic assessment) [1]: about 70%

C[C@H](CCC(=O)O)[C@H]1CC[C@H]2[C@@H]3C[C@H](O)[C@@H]4C[C@H](O)CC[C@]4(C)[C@H]3CC[C@]12C [HDCA, hyodeoxycholic acid]
rate of formation of atherosclerotic plaque [2]: reduced rate of formation | plasma levels [3]: up to 50 μM

COc1ccccc1Oc1c(NS(=O)(=O)c2ccc(C(C)(C)C)cc2)nc(-c2ncccn2)nc1OCCO [bosentan]
hepatic uptake and excretion of bile acids from the bile pole of the hepatocyte ([4]; 100 μM): inhibit

O=C1Nc2ccc(Cl)cc2[C@@](C#CC2CC2)(C(F)(F)F)O1 [efavirenz]
bile acid transport ([5]; 32 μM): inhibit | bile acid transport ([6]; 32 μM): inhibit

CC(=O)N1CCN(c2ccc(OCC3COC(Cn4ccnc4)(c4ccc(Cl)cc4Cl)O3)cc2)CC1 (stereo not drawn) [ketoconazole]
side effect [7]: hepatotoxicity | serum levels of cholic acid, taurocholic acid, and chenodeoxycholic acid ([8]; 25 mg/kg): increase | serum levels of cholic, taurocholic, chenodeoxycholic, glycocholic, glycochenodeoxycholic, glycodeoxycholic, deoxycholic and taurochenodeoxycholic acid ([8]; 50 mg/kg): increase | hepatocellular uptake of bile acids ([8]; dose related, relatively specific): strongly inhibiting

CC(C)c1nc(CN(C)C(=O)N[C@H](C(=O)N[C@@H](Cc2ccccc2)C[C@H](O)[C@H](Cc2ccccc2)NC(=O)OCc2cncs2)C(C)C)cs1 [ritonavir]
bile acid transport ([5]; 28 μM): inhibit | bile acid transport ([6]; 28 μM): inhibit

CC(C)c1nc(N(C)S(C)(=O)=O)nc(-c2ccc(F)cc2)c1/C=C/[C@@H](O)C[C@@H](O)CC(=O)O [rosuvastatin]
reduction with respect to normalized total atheroma volume ([9]; after 2 years, SD=11.1): 6.7% | plaque volume reduced, most diseased segments of vessels examined ([9]; after 2 years, SD=13.7): 8.5% | modulating LDL, HDL, and triglyceride levels [9]: particularly effective

ClC=C(Cl)Cl [trichloroethylene]
serum bile acids [10]: serum accumulation of bile acids | bile acid uptake by hepatocyte receptors ([10]; rather than actual cell damage): reversible physiological interference

Cc1c(C)c2c(c(C)c1O)CCC(C)(COc1ccc(CC3SC(=O)NC3=O)cc1)O2 (stereo not drawn) [troglitazone]
hepatic uptake and excretion of bile acids from the bile pole of the hepatocyte ([4]; 10 μM): inhibit
